Broadly, the IC50 is the point on the concentration scale where inhibition reaches its midpoint. Low readings indicate inhibition by little substance, high ones a need for much substance.

Each structure is given as a SMILES string.

This is an account of results in publication PMC6222329 (Molecules : A Journal of Synthetic Chemistry and Natural …, 2018).

What all share (format): biochemical
Assay [1] has as its target T1, BChE (Equine) (Equus caballus, UniProt P81908).
T1 construct: purchased Sigma-Aldrich (Steinheim, Germany)
The assay can be described thus: biochemical. On the procedure: (§1) The assay was performed in two steps.
(§2) All enzymes were obtained from Sigma-Aldrich (Steinheim, Germany). Ellman’s reagent and the substrates were obtained from Fluka (Buchs, Switzerland). The chemicals used to prepare the buffer solution were purchased from Merck (Darmstadt, Germany).
(§3) The enzyme inhibitory activities of the synthesized compounds were investigated by applying Ellman’s method. Enzyme solutions were dissolved in gelatin solution (1%; 2.5 units/mL). […] Then, the reaction was initiated by the addition of Ellman’s reagent 5,5′-Dithiobis(2-nitrobenzoic acid) (DTNB; 20 µL/well, 10 mM) and the substrate (10 µL/well, 75 mM). […] The enzyme solution was processed as a control. All readings were adjusted with blank-reading. All assays were performed in four independent wells. […] Absorbance differences between the two readings were taken, and percentage inhibition rates were calculated according to the following formula: % Inhibition=[(A(C)−A(B))−(A(I)−A(B))]/(A(C)−A(B))×100.
(§4) • Blank (B): the well in which the inhibitor compound and substrate were not added; • Control (C): the well where the inhibitor compound was not added; • A(B): the difference in absorbance reading for the blank; • A(C): the difference in absorbance reading for the control; • A(I): the difference in absorbance reading for the inhibitor compounds.

Assay [2] has as its target T2, AChE (Human) (Homo sapiens, UniProt P22303).
T2 construct: purchased Sigma-Aldrich (Steinheim, Germany)
As to the kind of experiment: AChE inhibition, Ellman's method. The protocol: as §1, §2, §3, §4
A general note: In Ellman's method for cholinesterases, released thiocholine reacts with DTNB.

Assay [3] deals with T3, AChE (Electrophorus electricus) (Electrophorus electricus, UniProt O42275).
T3 construct: purchased Sigma-Aldrich (Steinheim, Germany)
The assay can be described thus: AChE inhibition, Ellman's method. The protocol:
as §1, §2, §3, §4

Assay [4] has as its target T4, BChE (Human) (Homo sapiens, UniProt P06276).
T4 construct: purchased Sigma-Aldrich (Steinheim, Germany)
The assay can be described thus: BChE inhibition, Ellman's method. On the procedure:
as §1, §2, §3, §4

[5] abbreviates: read-out: AChE (Human) inhibitory activity (%) ± SD.
[6] abbreviates: read-out: AChE (Electrophorus electricus) inhibitory activity (%) ± SD.
[7] abbreviates: read-out: BChE (Human) inhibitory activity (%) ± SD.

T1 sequence (P81908 whole entry): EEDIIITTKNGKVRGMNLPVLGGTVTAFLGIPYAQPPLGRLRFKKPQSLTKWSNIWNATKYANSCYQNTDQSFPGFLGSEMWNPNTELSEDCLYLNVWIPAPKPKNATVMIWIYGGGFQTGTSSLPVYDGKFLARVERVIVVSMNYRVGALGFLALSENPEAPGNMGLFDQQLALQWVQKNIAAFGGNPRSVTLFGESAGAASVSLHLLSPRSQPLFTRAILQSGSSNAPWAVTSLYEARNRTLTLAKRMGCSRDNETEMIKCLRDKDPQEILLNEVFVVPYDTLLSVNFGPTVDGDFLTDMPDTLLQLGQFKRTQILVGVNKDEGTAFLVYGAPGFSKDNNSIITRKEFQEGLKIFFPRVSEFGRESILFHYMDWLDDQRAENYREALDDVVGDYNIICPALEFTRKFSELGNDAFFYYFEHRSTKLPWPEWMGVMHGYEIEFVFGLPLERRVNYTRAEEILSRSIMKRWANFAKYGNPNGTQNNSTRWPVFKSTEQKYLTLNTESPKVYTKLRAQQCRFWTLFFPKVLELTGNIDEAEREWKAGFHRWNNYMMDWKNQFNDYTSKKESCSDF
T2 sequence (P22303 32-614): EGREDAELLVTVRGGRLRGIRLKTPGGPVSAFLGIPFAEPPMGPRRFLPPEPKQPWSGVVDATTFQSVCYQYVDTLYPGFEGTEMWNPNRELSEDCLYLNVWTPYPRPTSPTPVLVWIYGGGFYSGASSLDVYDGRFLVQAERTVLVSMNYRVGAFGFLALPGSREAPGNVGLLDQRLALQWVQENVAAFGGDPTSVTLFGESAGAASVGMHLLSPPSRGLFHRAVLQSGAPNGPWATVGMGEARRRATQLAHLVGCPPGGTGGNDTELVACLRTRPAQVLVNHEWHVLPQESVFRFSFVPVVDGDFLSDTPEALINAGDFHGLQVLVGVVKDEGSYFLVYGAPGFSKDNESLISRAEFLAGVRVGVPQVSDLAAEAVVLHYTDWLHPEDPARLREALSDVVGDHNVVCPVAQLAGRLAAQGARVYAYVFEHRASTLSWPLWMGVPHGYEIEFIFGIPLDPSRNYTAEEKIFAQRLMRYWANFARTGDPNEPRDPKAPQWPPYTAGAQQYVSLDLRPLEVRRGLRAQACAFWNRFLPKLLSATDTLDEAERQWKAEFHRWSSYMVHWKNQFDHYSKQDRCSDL
T3 sequence (O42275 24-633): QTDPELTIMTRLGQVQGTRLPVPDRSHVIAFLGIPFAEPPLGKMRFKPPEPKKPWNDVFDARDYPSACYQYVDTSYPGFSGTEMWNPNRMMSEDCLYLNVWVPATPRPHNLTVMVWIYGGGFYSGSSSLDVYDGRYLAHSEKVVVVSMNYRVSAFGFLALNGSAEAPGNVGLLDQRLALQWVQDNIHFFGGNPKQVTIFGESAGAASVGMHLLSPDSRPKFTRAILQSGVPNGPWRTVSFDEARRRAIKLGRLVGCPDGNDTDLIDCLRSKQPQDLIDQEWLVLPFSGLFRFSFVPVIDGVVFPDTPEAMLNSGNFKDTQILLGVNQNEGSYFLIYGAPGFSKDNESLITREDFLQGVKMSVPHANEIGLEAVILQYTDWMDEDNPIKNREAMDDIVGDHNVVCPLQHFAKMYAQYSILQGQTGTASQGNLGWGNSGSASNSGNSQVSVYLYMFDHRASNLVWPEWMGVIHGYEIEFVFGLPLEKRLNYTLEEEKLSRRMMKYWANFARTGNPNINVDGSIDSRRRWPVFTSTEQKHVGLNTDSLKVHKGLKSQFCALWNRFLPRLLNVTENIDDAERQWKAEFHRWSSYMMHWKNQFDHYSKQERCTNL
T4 sequence (P06276 29-602): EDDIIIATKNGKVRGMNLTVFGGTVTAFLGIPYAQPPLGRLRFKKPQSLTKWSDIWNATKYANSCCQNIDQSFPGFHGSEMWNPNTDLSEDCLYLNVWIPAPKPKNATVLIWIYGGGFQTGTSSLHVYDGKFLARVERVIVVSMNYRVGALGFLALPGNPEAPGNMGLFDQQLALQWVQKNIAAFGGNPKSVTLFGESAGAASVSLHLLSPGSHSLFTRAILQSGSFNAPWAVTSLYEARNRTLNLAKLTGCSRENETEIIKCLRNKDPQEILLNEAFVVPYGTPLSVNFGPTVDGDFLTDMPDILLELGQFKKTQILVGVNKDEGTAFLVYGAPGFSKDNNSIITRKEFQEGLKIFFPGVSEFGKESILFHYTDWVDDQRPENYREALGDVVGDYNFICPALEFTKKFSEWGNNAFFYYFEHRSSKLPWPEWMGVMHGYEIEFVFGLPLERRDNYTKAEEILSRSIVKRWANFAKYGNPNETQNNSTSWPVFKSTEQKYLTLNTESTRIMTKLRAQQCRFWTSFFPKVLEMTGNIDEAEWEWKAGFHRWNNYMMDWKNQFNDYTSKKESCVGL

`Nc1c2ccccc2nc2ccccc12` [Aminoacridine, 9-aminoacridine, reference compound]: the IC50 turned out to be 233 ± 9 nM in assay [1] and 221 ± 7 nM in assay [4]. Also, the inhibition at 1000 µM was found to be 91.2 ± 1.2% in assay [1] (10^-3 M, read-out: BChE (Equine) inhibitory activity (%) ± SD); 87.2 ± 0.97% in assay [2] (setting [5]); 85.2 ± 1.08% in assay [3] (setting [6]); 90.4 ± 1.04% in assay [4] (setting [7]). Further, the inhibition at 100 µM in assay [1] (10^-4 M, read-out: BChE (Equine) inhibitory activity (%) ± SD) came to 87.3 ± 1.07%; in assay [2] (setting [5]) it was 78.2 ± 0.89%; in assay [3] (setting [6]), 75.2 ± 1.15%; in assay [4] (setting [7]) it was 86.1 ± 1.22%. Besides, the inhibition at 10 µM is 71.5 ± 1.02% in assay [1] (10^-5 M, read-out: BChE (Equine) inhibitory activity (%) ± SD); 55.3 ± 0.82% in assay [2] (setting [5]); 59 ± 1.05% in assay [3] (setting [6]); 74.3 ± 1.08% in assay [4] (setting [7]). For the same compound, the inhibition at 1 µM amounted to 56.3 ± 0.97% in assay [1] (10^-6 M, read-out: BChE (Equine) inhibitory activity (%) ± SD); 44.3 ± 0.74% in assay [2] (setting [5]); 41.7 ± 0.97% in assay [3] (setting [6]); 53.3 ± 0.99% in assay [4] (setting [7]). The inhibition at 0.1 µM came out at 42.8 ± 0.63% in assay [1] (10^-7 M, read-out: BChE (Equine) inhibitory activity (%) ± SD); 35.8 ± 0.67% in assay [2] (setting [5]); 31.6 ± 0.82% in assay [3] (setting [6]); 46.8 ± 0.7% in assay [4] (setting [7]). The inhibition at 0.01 µM in assay [1] (10^-8 M, read-out: BChE (Equine) inhibitory activity (%) ± SD) is 30.1 ± 0.48%; in assay [2] (setting [5]), 21.6 ± 0.42%; in assay [3] (setting [6]), 20.4 ± 0.55%; in assay [4] (setting [7]) it was 31.9 ± 0.62%. In addition, the inhibition at 0.001 µM in assay [1] (10^-9 M, read-out: BChE (Equine) inhibitory activity (%) ± SD) was 24.9 ± 0.5%; in assay [2] (setting [5]), 16.7 ± 0.37%; in assay [3] (setting [6]), 16 ± 0.48%; in assay [4] (setting [7]) it was 22.7 ± 0.48%.
For the compound `CCN1CCN(C(=S)SCC(=O)Nc2c3ccccc3nc3ccccc23)CC1` [Compound 4c, 2-(9-Acridinylamino)-2-oxoethyl 4-ethylpiperazine-1-carbodithioate], the results for the “BChE (Equine) inhibitory activity (%) ± SD” value in assay [1] (10^-3 M) and in assay [1] (10^-4 M) were 45.18±0.94% and 22.70 ± 0.70%, respectively. Further, the “AChE (Human) inhibitory activity (%) ± SD” value is given as 51.25±1.45% in assay [2] (10^-3 M) and 10.28 ± 0.22% in assay [2] (10^-4 M). The “AChE (Electrophorus electricus) inhibitory activity (%) ± SD” value in assay [3] (10^-3 M) came out at 50.73±2.21%; in assay [3] (10^-4 M), 5.11 ± 0.09%. Moreover, the results for the “BChE (Human) inhibitory activity (%) ± SD” value in assay [4] (10^-3 M) and in assay [4] (10^-4 M) were 50.23±0.88% and 20.55 ± 0.61%, respectively.
For `O=C(CSC(=S)N1CCN(c2ccc([N+](=O)[O-])cc2)CC1)Nc1c2ccccc2nc2ccccc12` [Compound 4d, 2-(9-Acridinylamino)-2-oxoethyl 4-(4-nitrophenyl)piperazine-1-carbodithioate], the results for the “BChE (Equine) inhibitory activity (%) ± SD” value in assay [1] (10^-3 M) and in assay [1] (10^-4 M) were 77.75±1.79% and 40.19 ± 0.49%, respectively. The figures for the “AChE (Human) inhibitory activity (%) ± SD” value in assay [2] (10^-3 M) and in assay [2] (10^-4 M) were 50.46±1.09% and 34.71 ± 0.77%, respectively. Moreover, the “AChE (Electrophorus electricus) inhibitory activity (%) ± SD” value in assay [3] (10^-3 M) was 55.62±1.14%; in assay [3] (10^-4 M), 31.64 ± 0.45%. Besides, the “BChE (Human) inhibitory activity (%) ± SD” value in assay [4] (10^-3 M) worked out at 80.56±1.51%; in assay [4] (10^-4 M), 45.26 ± 0.60%.
With `O=C(CSC(=S)N1CCN(c2ccccc2)CC1)Nc1c2ccccc2nc2ccccc12` [Compound 4f, 2-(9-Acridinylamino)-2-oxoethyl 4-phenylpiperazine-1-carbodithioate], the “BChE (Equine) inhibitory activity (%) ± SD” value was determined as 77.60±1.60% in assay [1] (10^-3 M) and 12.80 ± 0.87% in assay [1] (10^-4 M). In addition, the “AChE (Human) inhibitory activity (%) ± SD” value worked out at 74.28±1.04% in assay [2] (10^-3 M) and 8.71 ± 0.62% in assay [2] (10^-4 M). Besides, the “AChE (Electrophorus electricus) inhibitory activity (%) ± SD” value in assay [3] (10^-3 M) amounted to 77.65±2.42%; in assay [3] (10^-4 M) it was 4.70 ± 0.27%. Further, the “BChE (Human) inhibitory activity (%) ± SD” value in assay [4] (10^-3 M) is given as 75.23±1.25%; in assay [4] (10^-4 M) it was 15.67 ± 0.79%.
For the compound `CN1CCN(C(=S)SCC(=O)Nc2c3ccccc3nc3ccccc23)CC1` [Compound 4g, 2-(9-Acridinylamino)-2-oxoethyl 4-methylpiperazine-1-carbodithioate], the “BChE (Equine) inhibitory activity (%) ± SD” value in assay [1] (10^-3 M) amounted to 78.11±2.24%; in assay [1] (10^-4 M), 33.65 ± 0.89%. Also, the “AChE (Human) inhibitory activity (%) ± SD” value in assay [2] (10^-3 M) worked out at 30.85±0.65%; in assay [2] (10^-4 M) it was 11.30 ± 0.58%. For the same compound, the results for the “AChE (Electrophorus electricus) inhibitory activity (%) ± SD” value in assay [3] (10^-3 M) and in assay [3] (10^-4 M) were 26.90±0.83% and 10.44 ± 0.66%, respectively. The “BChE (Human) inhibitory activity (%) ± SD” value in assay [4] (10^-3 M) is 80.29±2.40%; in assay [4] (10^-4 M) it was 35.97 ± 0.80%.
